Reference: ChEMBL document CHEMBL3864162, “Discovery of potent inhibitors of the lysophospholipase autotaxin” (Bioorg Med Chem Lett, 2016)

How the values were obtained:
[1] = Intrinsic clearance in human liver microsomes assessed per gram of liver at 1 uM in presence of NADPH regenerating system measured up to 45 mins by UPLC/MS/MS analysis; type: ADME; conditions: 0.75 h
[2] = AUC in Balb-c nu/nu mouse at 30 mg/kg, po measured up to 7 hrs by UPLC/MS/MS spectrometry analysis; type: ADME, organism-based; parameters: time < 7 hr, dose 30 mg/kg, route oral; conditions: in vivo
[3] = AUC in Balb-c nu/nu mouse at 100 mg/kg, po measured up to 7 hrs by UPLC/MS/MS spectrometry analysis; type: ADME, organism-based; parameters: dose 100 mg/kg, time < 7 hr, route oral; conditions: in vivo
Mus musculus [4] = experiment: Reduction in plasma LPA C20:4 levels in Balb-c nu/nu mouse xenografted with human MDA-MB-231-luc cells at 30 to 100 mg/kg, po by UPLC/MS/MS analysis relative to control; type: functional
[5] = AUC in Balb-c nu/nu mouse at 10 mg/kg, po measured up to 7 hrs by UPLC/MS/MS spectrometry analysis; type: ADME, organism-based; parameters: time < 7 hr, dose 10 mg/kg, route oral; conditions: in vivo
Mus musculus [6] = experiment: Reduction in plasma LPA C18:2 levels in Balb-c nu/nu mouse xenografted with human MDA-MB-231-luc cells at 30 to 100 mg/kg, po by UPLC/MS/MS analysis relative to control; type: functional
[7] = Intrinsic clearance in rat liver microsomes assessed per gram of liver; type: ADME
Mus musculus [8] = experiment: Reduction in plasma LPA C18:1 levels in Balb-c nu/nu mouse xenografted with human MDA-MB-231-luc cells at 30 to 100 mg/kg, po by UPLC/MS/MS analysis relative to control; type: functional
[9] = Fraction unbound in mouse plasma; type: ADME, cell-free
Mus musculus [10] = species on record: Mus musculus; experiment: animal or person; conditions: Balb-c, Plasma
Description: Reduction in plasma LPA C18:1 levels in po dosed Balb-c nu/nu mouse xenografted with human MDA-MB-231-luc cells by UPLC/MS/MS analysis

in vivo [11] = conditions: Balb-c nu/nu, mouse, blood, po, 100 mg/kg
[12] = Blood clearance in CD1 mouse at 1 mg/kg, iv administered as bolus dose measured up to 7 hrs by UPLC/MS/MS spectrometry analysis; type: ADME, organism-based
in vivo [13] = conditions: Balb-c nu/nu, mouse, blood, po, 30 mg/kg
Mus musculus [14] = species on record: Mus musculus; experiment: animal or person; conditions: Balb-c, Plasma; remark: listed apart in the source
Description: Reduction in plasma LPA C16:0 levels in po dosed Balb-c nu/nu mouse xenografted with human MDA-MB-231-luc cells by UPLC/MS/MS analysis

[15] = Fraction unbound in rat plasma; type: ADME, cell-free
Autotaxin [16] = target: T1, Autotaxin (Homo sapiens, UniProt Q13822); experiment: Inhibition of human recombinant ATX using Rac-1-Palmitoyl-glycero-3-phosphocholine as substrate incubated for 2 hrs using ADHP fluorogenic peroxidase substrate by horseradish peroxidase/choline oxidase-coupled assay
Mus musculus [17] = species on record: Mus musculus; experiment: animal or person; conditions: Balb-c, Plasma; remark: listed apart in the source
Description: Reduction in plasma LPA C18:2 levels in po dosed Balb-c nu/nu mouse xenografted with human MDA-MB-231-luc cells by UPLC/MS/MS analysis

[18] = Cmax in Balb-c nu/nu mouse at 10 mg/kg, po measured up to 7 hrs by UPLC/MS/MS spectrometry analysis; type: ADME, organism-based; parameters: dose 10 mg/kg, route oral; conditions: in vivo
Mus musculus [19] = experiment: Toxicity in Balb-c nu/nu mouse at 100 mg/kg, po bid administered for 5 days; type: organism-based; conditions: in vivo, 120 h
Mus musculus [20] = species on record: Mus musculus; experiment: animal or person; conditions: Balb-c, Plasma; remark: listed apart in the source
Description: Reduction in plasma LPA C20:4 levels in po dosed Balb-c nu/nu mouse xenografted with human MDA-MB-231-luc cells by UPLC/MS/MS analysis

[21] = Half life in Balb-c nu/nu mouse blood at 10 mg/kg, po measured up to 7 hrs by UPLC/MS/MS spectrometry analysis; type: ADME, organism-based
[22] = Half life in Balb-c nu/nu mouse blood at 30 mg/kg, po measured up to 7 hrs by UPLC/MS/MS spectrometry analysis; type: ADME, organism-based
Autotaxin [23] = target: T1, Autotaxin; experiment: Inhibition of ATX in human plasma assessed as decrease in hydrolysis of lysophosphatidylcholine by measuring choline release after 24 hrs by horseradish peroxidase/choline oxidase-coupled assay; type: cell-free
[24] = Half life in Balb-c nu/nu mouse blood at 100 mg/kg, po measured up to 7 hrs by UPLC/MS/MS spectrometry analysis; type: ADME, organism-based
[25] = Cmax in Balb-c nu/nu mouse at 30 mg/kg, po measured up to 7 hrs by UPLC/MS/MS spectrometry analysis; type: ADME, organism-based; parameters: dose 30 mg/kg, route oral; conditions: in vivo
[26] = Half life in Sprague-Dawley rat blood at 1 mg/kg, iv administered as bolus dose or 3 mg/kg, po administered via gastric gavage measured up to 20 hrs by UPLC/MS/MS spectrometry analysis; type: ADME, organism-based
Mus musculus [27] = experiment: Reduction in plasma LPA C16:0 levels in Balb-c nu/nu mouse xenografted with human MDA-MB-231-luc cells at 30 to 100 mg/kg, po by UPLC/MS/MS analysis relative to control; type: functional
[28] = Half life in CD1 mouse blood at 1 mg/kg, iv administered as bolus dose measured up to 7 hrs by UPLC/MS/MS spectrometry analysis; type: ADME, organism-based
[29] = Blood clearance in Sprague-Dawley rat at 1 mg/kg, iv administered as bolus dose measured up to 20 hrs by UPLC/MS/MS spectrometry analysis; type: ADME, organism-based
Autotaxin [30] = target: T1, Autotaxin; experiment: Inhibition of ATX in human plasma assessed as decrease in LPA C18:1 levels after 24 hrs by horseradish peroxidase/choline oxidase-coupled assay
[31] = Cmax in Balb-c nu/nu mouse at 100 mg/kg, po measured up to 7 hrs by UPLC/MS/MS spectrometry analysis; type: ADME, organism-based; parameters: dose 100 mg/kg, route oral; conditions: in vivo
in vivo [32] = conditions: Sprague-Dawley, rat, po, 3 mg/kg
[33] = Volume of distribution at steady state in CD1 mouse at 1 mg/kg, iv administered as bolus dose measured up to 7 hrs by UPLC/MS/MS spectrometry analysis; type: ADME, organism-based; conditions: in vivo, read-out: Vdss
[34] = Intrinsic clearance in CD1 mouse liver microsomes assessed per gram of liver at 1 uM in presence of NADPH regenerating system measured up to 45 mins by UPLC/MS/MS analysis; type: ADME; conditions: 0.75 h

C[C@H](NC(=O)CCc1nc2cccnc2n1Cc1ccc(OC(F)(F)F)cc1)c1ccc(Cl)cc1 [CAMBRITAXESTAT]
CLH [1]: 9.4 mL/min/g | AUC at 7 h [2]: 15.2 µM·h | AUC at 7 h [3]: 59.3 µM·h | %max (Mus musculus [4]): 89 - 93% | AUC at 7 h [5]: 3.2 µM·h | %max (Mus musculus [6]): 89 - 93% | CLH [7]: 15 mL/min/g | %max (Mus musculus [8]): 89 - 93% | fraction unbound [9]: 0.018 | EC50 (Mus musculus [10]): 13 nM | bioavailability at 7 h (in vivo [11]): 75% | clearance [12]: 41 mL/min/kg | bioavailability at 7 h (in vivo [13]): 64% | EC50 (Mus musculus [14]): 8 nM | fraction unbound [15]: 0.02 | IC50 (Autotaxin [16]): 1 nM | EC50 (Mus musculus [17]): 30 nM | Cmax [18]: 3.8 µM | Activity (Mus musculus [19]): Non-Toxic | EC50 (Mus musculus [20]): 46 nM | half-life [21]: 1.4 h | half-life [22]: 0.9 h | IC50 (Autotaxin [23]): 14 to 24 nM | half-life [24]: 1.3 h | Cmax [25]: 10.9 µM | half-life [26]: 5.4 h | %max (Mus musculus [27]): 89 - 93% | half-life [28]: 1 h | clearance [29]: 19 mL/min/kg | IC50 (Autotaxin [30]): 38 nM | Cmax [31]: 18.1 µM | bioavailability at 20 h (in vivo [32]): 28% | Vd [33]: 1.3 L/kg | CLH [34]: 44.1 mL/min/g
